Measured values published in patent US7812142B2, “Pentose derivatives as anti-hyperglycemic drugs” (Yissum Research Development Company of the Hebrew …, priority 2002, dated 2010).

How the values were obtained:
[1] = tested on: isolated rat soleus muscles; assay: dGlc uptake in isolated soleus muscles; type: cell-based; details: 3 hr, 20 mM glucose with 20 mM xylose (FIG. 9)
Protocol: FIG. 9: Effect of D-xylose on dGlc uptake in soleus muscles. Soleus muscles were isolated from Sabra male albino rats and incubated for 3 hr with 20 mM glucose in the absence or the presence of 20 mM xylose. The muscles were washed and subjected to dGlc uptake assay without or with insulin (500 nM). Mean±SEM (n=3).
Some experiments with isolated rat soleus muscles were performed, in order to exclude cell-line specific effects, and to assess the physiologic relevance of the findings of the present invention. Soleus muscles were isolated from Sabra male albino rats and incubated for 3 hr with 20 mM glucose in the absence or the presence of 20 mM xylose. The muscles were washed and subjected to dGlc uptake assay without or with insulin (500 nM).
The procedure follows that described before in [Sasson et al (1987), Diabetes 36, 1041-46].

glucose transporter [2] = assay: Non-radioactive fluorimetric dGlc-6-P uptake assay with 10 mM dGlc; type: cell-based; details: 10 mM dGlc in the uptake assay
Protocol: Since the standard hexose transport assay utilizes 0.1 mM dGlc in the presence of tracer amount of [^3H] dGlc, the inventors asked whether the results shown above were limited to this particular assay condition. Therefore, experiments were repeated with 10 mM dGlc in the uptake assay. […] The uptake of hexose under these assay conditions was also linear up to 25 min.

PKB = PKB phosphorylation immunoblot in L6 myotubes; type: cell-based, rat; details: 23.0 mM glucose; 100 nM insulin, 20 mM xylose, 5 mM EH-114 or 250 μM EH-40, up to 24 hrs (FIG. 11B)
Protocol: FIG. 11B: Effects of insulin D-xylose and xylose derivatives on PKB phosphorylation. L6 myotubes were maintained at 5.5 mM or 23.0 mM glucose. The latter were treated with 100 nM insulin, 20 mM xylose, 5 mM EH-114 or 250 μM EH-40 up to 24 hrs. At the indicated times treated myotubes were collected, homogenized and lysed and the soluble protein fraction was isolated. The control myotubes were collected at the end of the 24 hr incubation period. Equal amounts of proteins of the various treated myotubes were separated on SDS-PAGE and immunoblotted with a specific antibody against phospho-Axt1/PKBα (Ser473). In order to test whether xylose derivative activate insulin transduction elements downstream of PI3K, the inventors tested the state of PKB phosphorylation, as shown in FIG. 11B.

3T3-L1 adipocytes = assay: Screening of methylated xylose derivatives, dGlc uptake assay (Table 1); type: cell-based; details: Mean±SEM (n=3-6)
Description: There are five carbon atoms in xylose available for chemical modifications. Each of these atoms was methylated by modifications of published chemical procedures [Bollenback, G. N. (1963) In Methods in carbohydrate chemistry, vol. 2 (Whistler, R. L. and Wolfrom, M. L., eds.), pp. 326-331, Academic Press, New York; Bowering, W. and Timel, T. (1958) Can. J. Chem. 36, 283-285; Levine, P. and Raymomd, A. (1933) J. Biol. Chem. 102, 331-344; Takeo, K. (1992) Carbohyd. Res. 224, 311-318]. All compounds were purified by HPLC and their structure verified by NMR spectroscopy. […] At the end of the incubation period the cells were taken for a standard [^3H]-2-deoxy-D-glucose uptake assay in the absence or the presence of 500 nM insulin (30 min exposure prior to the uptake assay).
3T3-L1 adipocytes and L6 myotubes were maintained for 24 hr at 20 mM glucose. Test compounds were added (0.1-20.0 mM) and the cells were incubated further for 2-45 hr. At the end of the incubation periods the cells were washed and taken for a standard [^3H]2-deoxy-D-glucose (dGlc) uptake assay. Uptake values (given for control cells) are in nmol dGlc/mg protein/min. Mean±SEM (n=3-6).
Uptake assay of the tritiated glucose analogue, 2-deoxy-D-glucose, is routinely performed as described in [Sasson, S. and Cerasi, E. (1986) J. Biol. Chem. 261, 16827-16833].

glucose transporter [3] = assay: [3H]dGlc uptake with unlabeled carbohydrates (affinity for the glucose transporter) in C2 myotubes; type: cell-based, mouse
Protocol: FIG. 6: Lack of affinity of D-xylose for the glucose transporters. C2 myotubes preconditioned with 20 mM glucose were subjected to [^3H]dGlc uptake assay (0.1 mM dGlc) with increasing concentrations of unlabeled dGlc, glucose or xylose. The unlabeled carbohydrates were added to the [^3H]dGlc solution in the uptake assay.
The inventors have also determined the affinity of D-xylose for the glucose transporter. C2 myotubes preconditioned with 20 mM glucose were subjected to [^3H]dGlc uptake assay (0.1 mM dGlc) in the presence of increasing concentrations of unlabeled dGlc, glucose or xylose. The results of these experiments are depicted in FIG. 6. The affinity of D-xylose for the glucose transporter is 2 orders of magnitude lower compared to glucose. The final concentration of dGlc in the assay was 0.1 mM.

SMILES: O=C[C@H](O)[C@@H](O)[C@H](O)CO [D-xylose]
- increase of the rate of dGlc uptake [1]: 42%
- competition for transport at high hexose level (glucose transporter [2]): does not compete for transport via the glucose transporter
- PKB phosphorylation (PKB): failed to induce significant phosphorylation
- HEXOSE UPTAKE (Percent of Control) Without Insulin (3T3-L1 adipocytes; 3T3-L1 adipocytes 24 hr at 20 mM glucose, test compounds 0.1-20.0 mM, 2-45 hr): 189 ± 4% of Control
- HEXOSE UPTAKE (Percent of Control) With Insulin (3T3-L1 adipocytes; as E1, 500 nM insulin 30 min prior to uptake assay): 158 ± 9% of Control
- affinity for the glucose transporter compared to glucose (glucose transporter [3]; 0.1 mM dGlc (FIG. 6)): 2 orders of magnitude lower
- competition with [3H]dGlc (glucose transporter [3]; 0.1 mM dGlc, increasing unlabeled carbohydrate): much weaker competitor
- molar excess necessary to achieve 50% inhibition of transport (glucose transporter [3]; over 0.1 mM dGlc): at least 100 fold molar excess
